Tested on: BALB 3T3 cells
Test: in vitro 3T3 NRU test, cytotoxicity
Format: cell-based, mouse
Conditions: for IC50: BALB 3T3, value in brackets
Protocol: Compounds 2–5 were studied for cytotoxicity/phototoxicity by an in vitro 3T3 NRU-test. The cell line BALB 3T3, clone A31 (mouse embryo fibroblasts), was incubated with the test compounds at a concentration from 15 to 4000 µg/mL for 24 h at 37 °C, 5% CO2, and 95% humidity. The cytotoxicity and phototoxicity were expressed in percentages relative to the negative control determined. […] Based on the dose–response curves, the CC50/PC50 values (50% cytotoxic/phototoxic concentration) were calculated by nonlinear regression analysis (Table 1). The CC50 values can be used to calculate the PIF (photo-irritancy factor) for each test compound according to the following formula: PIF = CC50/PC50.
BALB/3T3 cells were cultured in 75 cm^2 tissue culture flasks in DMEM, 10% FBS, 2 mM glutamine, and antibiotics (penicillin 100 U/mL and streptomycin-100 µg/mL) at 37 °C, 5% CO2, and 90% relative humidity. Cytotoxicity/phototoxicity was assessed by a validated BALB/3T3 clone A31 neutral red uptake assay (3T3 NRU test). Briefly, cells were plated in a 96-well microtiter plate at a density of 1 × 10^4 cells/100 µL/well and incubated for 24 h. A wide concentration range was applied for the test compounds. For the phototoxicity tests, 96-well plates were irradiated with a dose of 2.4 J/cm^2, and the cells were incubated for an additional 24 h. After treatment with neutral red medium, washing, and treatment with the ethanol/acetic acid solution, the absorption was measured on a TECAN microplate reader (TECAN, Grödig, Austria) at a wavelength of 540 nm. The light source which we used was a light-emitting diode (LED) matrix—an artificial solar light simulator Helios-iO, model LE-9ND55-H—5500K (SERIC Ltd., Tokyo, Japan).
Cytotoxicity/phototoxicity were expressed as CC50/PC50 values (concentrations required for 50% cytotoxicity/phototoxicity), calculated using non-linear regression analysis (GraphPad Software GraphPad Prism 9.5.1, San Diego, CA, USA). The CC50 values were used to calculate the PIF (photo-irritancy factor) for each test substance, according to the following formula: […]

Compound: CCOC(=O)Cc1nc(N)c2c(C)c(C(=O)OCC)sc2n1 [Compound 2, Ethyl 4-Amino-2-(2-Ethoxy-2-Oxoethyl)-5-Methylthieno[2,3-d]Pyrimidine-6-Carboxylate]
- IC50: 5.4 mM

Compound: CCOC(=O)c1sc2nc(CC)nc(N)c2c1C [Compound 4, Ethyl 4-Amino-2-Ethyl-5-Methylthieno[2,3-d]Pyrimidine-6-Carboxylate]
- IC50 of Mean ± SD, Cytotoxicity (BALB 3T3, 24 h, NRU, no irradiation (CC50)): 1678 ± 70.4 µg/mL
- IC50: 6.4 mM

Reference: paper PMC10489817, “2-Alkyl-Substituted-4-Amino-Thieno[2,3-d]Pyrimidines: Anti-Proliferative Properties to In Vitro Breast Cancer Models” (Molecules, 2023)
